Data from US20060223884A1, “Compounds and compositions for use in the prevention and treatment of obesity and related syndromes” (priority 2005, published 2006).
Read-outs that look alike come from different tables or passages of the source.

Experiments:
[1] = Body weight of DIO mice, 4-hydroxyisoleucine and Rimonabant alone and in combination (Example 7); format: in vivo, C57BU6 mice; conditions: oral
Experimental: C57BU6 mice were received at 7-8 weeks of age and fed a high fat diet (60% of calories from fat) for 8 weeks. Seven days prior to treatment, animals were randomized based on their body weight and fasted glycemia values into control and treated groups (n=8). The animals were treated by oral gavage twice daily with 4-OH (50 mg/kg of body weight; group 2), once daily in the afternoon with Rimonabant (0.1 mg/kg; group 3), and a combination of the two treatments (4-OH 50 mg/kg twice daily +Rimonabant 0.1 mg/kg once daily; group 4). The control group (group 1) received vehicle alone twice daily. After 3 weeks of treatment (day 22), the doses were increased as follows: 4-OH 100 mg/kg twice daily (group 2), Rimonabant 1 mg/kg once daily (group 3), and the combination (4-OH 100 mg/kg twice daily+Rimonabant 1 mg/kg once daily; group 4). The animals were treated for 1 week with these higher doses. Body weight of the mice was recorded every day for all groups from Day 6 to Day 28.

[2] = Reversal of weight gain in obese wistar rats on HFHS diet (Example 11); format: in vivo; conditions: 100 mg/kg twice daily oral
Source text: The aim of this study was to evaluate the effect of chronic administration of 4-hydroxyisoleucine (4-OH, Compound 14a) on food consumption, tissue weight, and body weight gain of wistar obese rats.
A total of 30 animals were used in the study. The animals were acclimated for 1 week and fed standard chow. The animals were randomized into 3 groups of 10 animals each. Two groups were fed a high fat, high sucrose diet (HFHS), and 1 untreated control group was fed standard chow over a 28 day period. Animals were housed separately and food consumption was monitored daily.
In the following period of 28 days, the feeding regimen remained the same for the 3 groups; however, 1 group fed HFHS was treated with twice daily oral administration of 4-OH at 100 mg/kg per dose. For the 28 days of treatment, 4-OH was dissolved in reverse osmosis water, aliquoted, and kept at 4° C. Untreated animals received water twice daily.

[3] = Prevention of weight gain in Wistar rats fed a high fat, high sucrose diet (Example 10); format: in vivo; conditions: Wistar rats on HFHS diet, 100 mg/kg twice daily oral
Source text: The aim of this study was to evaluate the effect of chronic administration of 4-hydroxyisoleucine (4-OH, Compound 14a) on food consumption, tissue weight, and body weight gain of normal Wistar rats fed a high fat, high sucrose diet (HFHS).
The animals were acclimated for 1 week and fed standard chow prior to the commencement of treatment, then for the 28 days of the treatment the animals were fed a high fat, high sucrose diet (HFHS). A total of 30 animals were used in the study. The animals were distributed into 3 groups each composed of 10 animals: 1 group fed HFHS with treatment, 1 untreated control group fed standard chow, and 1 untreated group fed HFHS. Animals were housed separately and food consumption was monitored daily.
For the four weeks of treatment, the test compounds were dissolved in reverse osmosis water. 4-hydroxyisoleucine (4-OH) was aliquoted and kept at 4° C. Treated animals received twice daily oral administration of 4-OH at 100 mg/kg per dose. Control animals received water twice daily.

[4] = cited from earlier work
[5] = format: in vivo; conditions: ob/ob mice
Source text: The objective of this study was to evaluate the effect of chronic administration of 4-hydroxyisoleucine (4-OH, compound 14a) on food consumption and body weight gain in a genetic model of obesity, the ob/ob mouse. Body weight gain and food consumption were monitored for 1 week prior to the commencement of treatment, and then for the 56 days of treatment.
A total of 16 animals were used in the study. The animals were distributed into 2 groups (1 treated, 1 control group, all on standard chow). Each group was composed of 8 animals. The mice were randomized according to body weight values.
For the eight weeks of treatment, the test agent was dissolved in reverse osmosis water. 4-hydroxyisoleucine was aliquoted and kept at 4° C. Control animals received reverse osmosis water twice daily (group 1). Mice from group 2 were treated twice daily with 4-OH at 100 mg/kg. All groups were treated by oral gavage. Treatment commenced on Day 0 and ended on Day 56 (FIGS. 16A and 16B). Food consumption was measured daily and averaged on a weekly basis beginning one week before the start of treatment as shown in FIG. 16B.

[6] = Oral Glucose Tolerance Test (OGTT) in DIO mice, 4-hydroxyisoleucine and Exendin-4 alone or in combination (Example 5); format: in vivo, C57BI/6 mice; conditions: single agent, 4-OH 50 mg/kg or Exendin-4 0.01 mg/kg, after 7, 14 and 21 days of treatment
Experimental: Glycemic response was monitored by an Oral Glucose Tolerance Test (OGTT) performed on days 0, 7, 14, and 21 of treatment.
A total of 56 animals were used in the study. The animals were distributed into 7 groups (5 treated, 1 normal diet control, and 1 high fat diet control group). Each group was composed of 8 animals. […] For the three weeks of treatment, the test agents were dissolved in sterile saline for injection (USP). 4-Hydroxyisoleucine was kept at 4° C. (administration to groups 3, 4, and 7) while a frozen aliquot of Exendin-4 was thawed each dosing day for administration to groups 5, 6, and 7. Control animals received sterile saline, twice daily (groups 1 and 2). […] Animals from groups 5 and 6 received sterile saline as the AM treatment, while the PM treatment consisted of 0.05 and 0.01 mg/kg of Exendin-4, respectively. For Group 7, the AM treatment consisted of 50 mg/kg 4-OH only, while the PM treatment consisted of 0.01 mg/kg of Exendin-4+50 mg/kg of 4-OH. All groups were treated by subcutaneous injection.
On days 0, 7, 14, and 21, animals fasted for approximately 5 hours were challenged with an Oral Glucose Tolerance Test (OGTT) at 5 hours post-AM test agent administration. Whole blood glucose levels were monitored using a hand-held glucometer prior to OGTT and for up to 2 hours post-glucose challenge.

[7] = obese wistar rats (28 days HFHS before treatment)

With C[C@@H]([C@H](C)O)[C@H](N)C(=O)O [compound 14a, (2S,3R,4S)-4-Hydroxyisoleucine] the “body weight gain after 21 days (low dosage treatment)” value ([1]; 4-OH 50 mg/kg twice daily, Rimonabant 0.1 mg/kg once daily, alone or in combination) was “slight reduction of body weight gain”, the “body weight after dose increase (day 22 to 28)” value ([1]; 4-OH 100 mg/kg twice daily, Rimonabant 1 mg/kg once daily, alone or in combination (combination compared to each compound separately)) was “immediately reduced the body weight” and the “epididymal and peri-renal adipose tissue” value [2, 7] was “reduction of epididymal and pen-renal adipose tissue”. For the same compound, the “muscle, brown fat, and organ weight” value [2, 7] was “not affected”, the tolerability of treatment [2, 7] was “well tolerated” and the weight gain [2, 7] was “Moderation of weight gain”. For the same compound, the food consumption ([2]; obese wistar rats, 28 days, could not account for the differences in adiposity) was “reduction in food consumption”, the “epididymal and peri-renal adipose tissue” value ([3]; 28 days) was “reduction of epididymal and peri-renal adipose tissue” and the tolerability of treatment ([3]; 28 days) was “well tolerated”. The weight gain ([3]; 28 days) was “Moderation of weight gain”, the “muscle, brown fat, and organ weight” value ([3]; 28 days (data not shown)) was “not affected” and the food consumption ([3]; 28 days, could not account for the differences in weight gain) was “reduction in food consumption”. The “insulinotropic and insulin sensitizing activities” value ([4]; Broca et al. 1999, 2000, 2004, WO 97/32577, WO 01/15689) was “insulinotropic and insulin sensitizing activities”, the antidyslipidemic activities ([4]; Narender et al. 2006) was “antidyslipidemic activities” and the “weight gain during the course of treatment” value ([5]; 100 mg/kg twice daily oral) was “moderation of weight gain”. For the same compound, the “weight gain as compared to the control group” value ([5]; 100 mg/kg twice daily oral, Day 21 to Day 56) was “significantly reduced”, the tolerability of treatment ([5]; 100 mg/kg twice daily, oral gavage, 56 days) was “well tolerated” and the food consumption ([5]; first three weeks of treatment but not later on) was “slight decrease in food consumption”. For the same compound, the “glycemic levels following OGTT challenge” value [6] was “consistently effective at reducing glycemic levels”.
